From US20260027124A1, “SUBSTITUTED IMIDAZO[1,2-A]PYRIDINE COMPOUNDS AND THE USE THEREOF IN THE TREATMENT AND PREVENTION OF FIBROSIS” (MOEXA PHARMACEUTICALS LIMITED, priority 2022, published 2026)

System: TGF-β
Assay: TGFβ/SMAD Signaling Pathway SBE Reporter-HEK293 luciferase assay (inhibition of TGF-β)
Format: cell-based
Conditions: SBE reporter-HEK293 cells, human TGFβ1 20 ng/ml; for IC50: 4 h compound pre-incubation, ~18 hours, luciferase luminescence; for inhibitory activity against TGF-β: statement in words
Description: Transforming TGF-β regulates the proliferation and differentiation of fibroblasts, which are the primary constituent cells of fibrous tissues. As such, representative compounds of the present disclosure were tested for their ability to inhibit TGF-β.
• 1. TGFβ/SMAD Signaling Pathway SBE Reporter—HEK293 Cell Line BPS Bioscience Catalog #: 60653 • 2. Human TGFβ1 (BPS Bioscience #90900-1) • 3. SIS3 (Sigma #S0447): inhibitor of TGFβ pathway. Prepare stock solution in DMSO. • 4. Growth medium: MEM medium (Invitrogen #11095-080)+10% FBS (ATCC #30-2020)+1% non-essential amino acids (Lonza #13-114E)+1 mM Na pyruvate (Lonza #13-115E)+1% Penicillin/Streptomycin (ATCC #30-2300)+400 μg/ml of Geneticin (Invitrogen #11811-031). • 5. Assay medium: MEM medium+0.5% FBS+1% non-essential amino acids+1 mM Na pyruvate+1% Pen/Strep • 6. 96-well tissue culture-treated white clear-bottom assay plate (Corning #3610) • 7. ONE-Step™ Luciferase Assay System (BPS, Cat. #60690)
SBE reporter-HEK293 cells were harvested from culture in growth medium and seeded at a density of ˜10,000 cells per well into a white clear-bottom 96-well microplate in 100 μl of assay medium. The plate containing cells were incubated at 37° C. in a CO2 incubator. 24 hours after seeding, cells were washed with 100 μL of assay buffer and treated with three fold serial dilution of compounds in 50 μl assay medium. Cells were incubated at 37° C. in a CO2 incubator for 4 hours. For control wells 50 μl assay medium was added with no inhibitor. Each treatment was done in triplicate. After 4 hours of incubation, 5 μl of human TGFβ1 in assay medium was added to cells (final TGFβ1 concentration=20 ng/ml). 5 μl of assay medium was added to the unstimulated control wells (for determining the basal activity). The plate with cells was incubated at 37° C. in a CO2 incubator overnight (˜18 hours). After 18 hours of incubation Luciferase assay was performed using ONE-Step™ Luciferase Assay System according to the protocol provided: 50 μl of ONE-Step™ Luciferase reagent was added per well and shook at room temperature for ˜10 minutes. Luminescence was measured using a luminometer.

| IC50 [µM] | inhibitory activity against TGF-β | SMILES |
| --- | --- | --- |
| 5.45 | showed inhibitory activity | COc1cc2c(cc1OC)CN(C(=O)/C=C/c1c(-c3ccc(Cl)cc3)nc3ccccn13)CC2 [Compound 6] |
| 3.72 | showed inhibitory activity | O=C(/C=C/c1c(-c2ccccc2)nc2ccccn12)N1CCOCC1 [Compound 8] |
| 6.11 | showed inhibitory activity | COc1cc2c(cc1OC)CN(C(=O)/C=C/c1c(-c3ccccc3)nc3ccccn13)C2 [Compound 9] |
| 4.32 | showed inhibitory activity | COc1cc2c(cc1OC)CN(C(=O)/C=C/c1c(-c3ccccc3)nc3ccc(F)cn13)C2 [Compound 10] |
| 3.52 | showed inhibitory activity | COc1cc2c(cc1OC)CN(C(=O)/C=C/c1c(-c3ccc(F)cc3)nc3ccccn13)C2 [Compound 11] |
| 2.65 | – | COc1cc2c(cc1OC)CN(C(=O)/C=C/c1c(-c3ccccc3)n(C)c3ncccc13)CC2 [SIS3, reference compound] |
